Data set [1] concerns the target Cyclophilin B (CypB) (Homo sapiens (Human), UniProt P23284). The data set is described as follows: Cyclophilin PPIase enzymatic assay (chymotrypsin coupled), CypB. The format is biochemical. Conditions: for Inhibition (%): activity test at 100 μM on CypB; for IC50: CypB. On the procedure: (§1) Cyclophilin A, B protein carrying a hexahistidine tag (His-Tag) at the C-terminus, were expressed in Escherichia coli and purified. Briefly, cultures of C41(DE3) cells were grown at 37° C. for ˜1 h until the culture reached an optical density of 0.6 at 600 nm, and induced with 1 mM isopropyl β-D-thiogalactoside for 4 h at 37° C. or overnight at 22° C. for cylophilin A and cyclophilin B, respectively. Cell pellets (1 L) were resuspended in a lysis buffer (20 mM NaH2PO4 (pH 7.8), 300 mM NaCl, 7 mM β-mercaptoethanol, 1 mg/ml lysozyme, 0.1 U/μl Desoxyribonuclease and complete protease inhibitor tablets (Roche)). The sonicated cell lysates were clarified by centrifugation at 10 000 g for 45 min at 4° C., chromatographed on a Ni-NTA column and washed with buffer: (20 mM NaH2PO4 (pH7.8), 300 mM NaCl, 50 mM imidazole, 7 mM β-mercaptoethanol, 10% glycerol). The bound protein was eluted in 1 ml fractions with buffer: (20 mM NaH2PO4 (pH7.8), 300 mM NaCl, 250 mM imidazole, 7 mM β-mercaptoethanol, 10% glycerol) and monitored by the Bradford colorimetric assay. The purity of each cyclophilin was determined by Coomassie-stained SDS-PAGE analysis.
(§2) The reaction was initiated by adding 20 μL of 3.2 mM peptide substrate (Suc-Ala-Ala-cis-Pro-Phe-pNA) in LiCl/TFE solution with rapid inversion. […] The final concentration of LiCl in the assay was 20 mM; TFE was present at a concentration of 4% (v/v). Absorbance readings were collected every 1 s by spectrophotometer. The inhibition assays of compounds were performed in the same manner as mentioned above. A 5 μL aliquot of the compounds in DMSO was added to the cyclophilin solution in the assay buffer. The assay was started by the addition of the substrate. Cyclosporine A was used as control in all measurement. The percentage inhibition of cyclophilin PPiase activity were calculated from slopes and values obtained represent an average of at least two independent measurements.

Data set [2] has as its target Cyclophilin D (CypD) (Homo sapiens, UniProt P30405, K175I). Put plainly: Cyclophilin PPIase enzymatic assay (chymotrypsin coupled), CypD. The format is biochemical. On the procedure: The protein was expressed in E. coli strain BL21(DE3). Bacteria were grown in LB medium at 37° C. and induced during 2 h with isopropyl-β-D-thiogalactopyranoside (IPTG) around OD 0.8. Cells were lysed by sonication in a buffer consisting of 50 mM Tris at pH 7.5, 2 mM EDTA and 2 mM β-mercaptoethanol (buffer A). The lysate was centrifuged at 40000 g for 30 min. The supernatant was loaded on a Q-Sepharose and S-Sepharose columns in series equilibrated with buffer A. The S-Sepharose column was washed with equilibrium buffer and bound proteins were eluted with a linear gradient from 0 to 1M NaCl.
as §2

Data set [3] deals with Cyclophilin A (CypA) (Homo sapiens (Human), UniProt P62937). The data set is described as follows: Cyclophilin PPIase enzymatic assay (chymotrypsin coupled), CypA. The format is biochemical. The conditions noted are these: for IC50: CypA. On the procedure:
as §1, §2

Data set [4] concerns HCV genotype 1b bicistronic replicon in Huh7 cells. Put plainly: Antiviral activity in the replicon model. The format is cell-based. Conditions: Hepatitis C virus, Huh-7, 72 h. Here is the method: HCV replicon harboring cells were seeded at a low density of 5000 cells per well in 96-well plates. The cells were treated with increasing concentrations of the tested compounds in Dulbecco modified Eagle medium containing 10% fetal bovine serum and 1% DMSO without G418 and cultured for 3 days. Total RNA was extracted using the RNeasy 96 kit (Qiagen). […] HCV RNA levels were measured by means of […]. The results were normalized to GAPDH gene. Each data point represents the average of at least three replicates in cell culture. HCV RNA level reductions after treatment were assessed by comparing the level of HCV RNA in compound-treated cells to that of control cells treated with 1% DMSO.
(Replicon systems follow genome replication, usually without infectious particles.)

Data set [5] is described as follows: Acute toxicity in mice. The format is in vivo. The conditions noted are these: female mice, 1, 10, 50 and 150 mg/kg, one intraperitonal injection. On the procedure:
The acute toxicity of F684 was evaluated in mice. In this study, female mice (n=3/group) were administered with the negative control (PBS) or F684 (1 mg/kg, 10 mg/kg, 50 mg/kg and 150 mg/kg of body weight dissolved in PBS), one time by intraperitonal injection. At the time of injection, animals were approximately 5 month old and body weights ranged from 27 to 33 g.

Setting [6] is: activity test at 100 μM on CypA, read-out: Inhibition (%).
[7] abbreviates: HCV genotype 1b replicon, Huh7 cells, 3 days, HCV RNA, read-out: EC50 replicon.

Like-named read-outs stand apart in the source and are kept apart here.

Chain of Cyclophilin A (CypA) (P62937 whole entry): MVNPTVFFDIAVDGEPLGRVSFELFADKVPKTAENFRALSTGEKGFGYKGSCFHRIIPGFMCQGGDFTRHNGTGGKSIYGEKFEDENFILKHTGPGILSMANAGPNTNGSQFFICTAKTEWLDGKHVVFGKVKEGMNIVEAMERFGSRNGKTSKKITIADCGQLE
Chain of Cyclophilin B (CypB) (P23284 34-216): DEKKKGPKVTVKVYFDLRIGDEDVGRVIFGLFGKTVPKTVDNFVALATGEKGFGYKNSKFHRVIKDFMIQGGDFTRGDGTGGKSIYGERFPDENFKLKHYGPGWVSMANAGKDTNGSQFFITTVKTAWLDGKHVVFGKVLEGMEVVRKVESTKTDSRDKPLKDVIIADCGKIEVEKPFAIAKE
Chain of Cyclophilin D (CypD) (P30405 30-207 K175I limits assumed): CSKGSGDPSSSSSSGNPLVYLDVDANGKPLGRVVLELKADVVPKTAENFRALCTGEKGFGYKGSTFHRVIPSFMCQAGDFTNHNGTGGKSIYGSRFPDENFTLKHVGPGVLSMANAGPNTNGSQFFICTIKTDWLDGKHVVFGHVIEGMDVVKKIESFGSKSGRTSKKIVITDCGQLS

As to “2-(3-(3-acetamidobenzyl)ureido)acetate [Compound F566]”, the “Inhibition (%)” value in data set [1] amounted to 26.5%; in data set [2] (activity test at 100 μM on CypD), 22.7%.

Regarding `CCOC(=O)CNC(=O)NCc1ccc(OC)cc1` [Compound F429, ethyl 2-(3-(4-methoxybenzyl)ureido)acetate], the inhibition (in general, the change of the read-out against control, counted positive when it falls) at 1000 µM in data set [2] came to 42.1%.

Consider `CCOC(=O)CNC(=O)NCC1CCNCC1` [Compound F509, ethyl 2-(3-(piperidin-4-ylmethyl)ureido)acetate], for which the inhibition at 100 µM in data set [2] worked out at 18.3%.

In the case of `CCOC(=O)CNC(=O)NCc1cccc(F)c1` [Compound F511, ethyl 2-(3-(3-fluorobenzyl)ureido)acetate], the inhibition at 100 µM in data set [2] came to 12.9%.

For the compound `CCOC(=O)CNC(=O)NCc1cccc(OC)c1` [Compound F512, ethyl 2-(3-(3-methoxybenzyl)ureido)acetate], the inhibition at 100 µM in data set [1] came out at 16.6%; in data set [2], 26.5%.

For the compound `Nc1ccc(CNC(=O)NCC(=O)N2CCOCC2)cc1` [Compound F544, 1-(4-aminobenzyl)-3-(2-morpholino-2-oxoethyl)urea], the inhibition at 100 µM in data set [1] is 26%; in data set [3] (setting [6]) it was 12.2%.

With `CCOC(=O)C1CCCN(C(=O)CNC(=O)NCc2ccc(N)cc2)C1` (stereo not shown) [Compound F545, ethyl 1-(2-(3-(4-aminobenzyl)ureido)acetyl)piperidine-3-carboxylate], the inhibition at 100 µM in data set [1] was 65.7%; in data set [3] (setting [6]), 49.2%. Further, 75.1 µM corresponded to half-maximal inhibition in data set [1] (IC50).

As to `Nc1ccc(CNC(=O)NCC(=O)NCCc2ccccc2)cc1` [Compound F547, 2-(3-(4-aminobenzyl)ureido)-N-2-phenyl-ethylacetamide], the inhibition at 100 µM in data set [1] turned out to be 15.2%; in data set [3] (setting [6]) it was 22.5%.

With `CCOC(=O)CNC(=O)NCc1ccc(O)c(O)c1` [Compound F548, ethyl 2-(3-(3,4-dihydroxybenzyl)ureido)acetate], the inhibition at 100 µM amounted to 20.8% in data set [1] and 25.5% in data set [2].

With `CCOC(=O)CNC(=O)NCc1cccc(N)c1` [Compound F549, ethyl 2-(3-(3-aminobenzyl)ureido)acetate], the values for the inhibition at 100 µM in data set [1], in data set [2] and in data set [3] (setting [6]) were 48.9%, 24.5% and 14.8%, respectively.

Turning to `Nc1ccc(CNC(=O)NCC(=O)N2CCOC(CN3C(=O)c4ccccc4C3=O)C2)cc1` (stereo not shown) [Compound F554, 1-(4-aminobenzyl)-3-(2-(2-((1,3-dioxoisoindolin-2-yl)methyl)morpholino)-2-oxoethyl)urea], the figures for the inhibition at 100 µM in data set [1], in data set [2] and in data set [3] (setting [6]) were 70.9%, 20.9% and 67.2%, respectively. Besides, the IC50 – broadly, the concentration at which inhibition is half-maximal – in data set [1] is 24.6 µM.

With `COc1ccc(N(C)C(=O)CNC(=O)NCc2ccc(N)cc2)cc1` [Compound F555, 2-(3-(4-aminobenzyl)ureido)-N-4-methoxyphenyl-N-methylacetamide], the figures for the inhibition at 100 µM in data set [2] and in data set [3] (setting [6]) were 26.1% and 65.1%, respectively.

`CN(C(=O)CNC(=O)NCc1ccc(N)cc1)c1ccccc1` [Compound F557, 2-(3-(4-aminobenzyl)ureido)-N-phenyl-N-methylacetamide]: the inhibition at 100 µM in data set [2] was found to be 42.9%; in data set [3] (setting [6]) it was 63.4%.

With `CCN(O)C(=O)CNC(=O)NCc1ccc(N)nc1` [Compound F606, 2-(3-((6-aminopyridin-3-yl)methyl)ureido)-N-hydroxy-N-ethylacetamide], the inhibition at 100 µM in data set [1] stood at 17.3%; in data set [3] (setting [6]) it was 18.9%.

As for `CCN(OCc1ccccc1)C(=O)CNC(=O)NCc1ccc(N)cc1` [Compound F607], the IC50 stood at 4.8 µM in data set [1]; 30 µM in data set [2] (CypD, read-out: CypD IC50); 9 µM in data set [3]. In addition, in data set [1], the “Inhibition (%)” value turned out to be 95.3%.

As for `Nc1ccc(CNC(=O)Nc2cnc3sccn3c2=O)cc1` [Compound F608, 1-(4-aminobenzyl)-3-(5-oxo-5H-thiazolo[3,2-a]pyrimidin-6-yl)urea], the figures for the inhibition at 100 µM in data set [1] and in data set [3] (setting [6]) were 38.7% and 26.3%, respectively.

Take `COc1ccccc1C1CCCN1C(=O)CNC(=O)NCc1ccc(N)cc1` (stereo not shown) [Compound F609, 1-(4-aminobenzyl)-3-(2-(2-(2-methoxyphenyl)pyrrolidin-1-yl)-2-oxoethyl)urea]: the EC50 (as a rule, the concentration at which the effect is half-maximal) in data set [4] (setting [7]) amounted to 20 µM. The inhibition at 100 µM in data set [1] came to 101%; in data set [3], 100%. Further, the IC50 in data set [1] stood at 1.2 µM; in data set [2], 11.4 µM; in data set [3], 2.8 µM.

As for `CCOC(=O)C(Cc1cccc(OCc2ccccc2)c1)NC(=O)NCc1ccc(N)cc1` (stereo not shown) [Compound F611, ethyl 2-(3-(4-aminobenzyl)ureido)-3-(3-(benzyloxy)phenyl)propanoate], the results for the inhibition at 100 µM in data set [1] and in data set [3] (setting [6]) were 73.3% and 72.8%, respectively.

Consider `CCOC(=O)C(Cc1cccc(O)c1)NC(=O)NCc1ccc(N)cc1` (stereo not shown) [Compound F612, ethyl 2-(3-(4-aminobenzyl)ureido)-3-(3-hydroxyphenyl)propanoate], for which the inhibition at 100 µM in data set [1] was 26.7%; in data set [3] (setting [6]) it was 26.3%.

Take `Nc1ccc(CNC(=O)NCC(=O)N2CCCC2c2cccc3ccccc23)cc1` (stereo not shown) [Compound F671, 1-(4-aminobenzyl)-3-(2-(2-(naphthalen-1-yl)pyrrolidin-1-yl)-2-oxoethyl)urea]: the EC50 in data set [4] (setting [7]) worked out at 4.3 µM. Also, the IC50 in data set [2] was 1.4 µM; in data set [3] it was 1.5 µM.

As for `Nc1ccc(CNC(=O)NCC(=O)N2CCCC2c2ccccc2Cl)cc1` (stereo not shown) [Compound F673, 1-(4-aminobenzyl)-3-(2-(2-(2-chlorophenyl)pyrrolidin-1-yl)-2-oxoethyl)urea], the IC50 was 6.2 µM in data set [2] and 3.4 µM in data set [3].

As to `CSc1ccccc1C1CCCN1C(=O)CNC(=O)NCc1ccc(N)cc1` (stereo not shown) [Compound F684, 1-(4-aminobenzyl)-3-(2-(2-(2-(methylthio)phenyl)pyrrolidin-1-yl)-2-oxoethyl)urea], the EC50 in data set [4] (read-out: EC50 replicon (μM)) amounted to 0.8 µM. Moreover, the IC50 in data set [1] came out at 0.65 µM. Further, in data set [5], the acute toxicity result was “not acutely toxic”; the “body weights, feed consumption, clinical observations or gross organ necropsy vs vehicle control” value is “No differences”; the survival result is on record as “All animals survived to scheduled sacrifice”. The compound also gave an IC50 in data set [2] of 0.64 µM. Further, half-maximal inhibition in data set [3] (IC50) required 0.37 µM.

As to `CSc1ccccc1C1CCCN1C(=O)C(CC(C)C)NC(=O)NCc1ccc(N)cc1` (stereo not shown) [Compound F712, 1-(4-aminobenzyl)-3-(4-methyl-1-(2-(2-(methylthio)phenyl)pyrrolidin-1-yl)-1-oxopentan-2-yl)urea], the IC50 in data set [2] was 3 µM; in data set [3], 3.3 µM.

Consider `CSc1ccccc1C1CCCN1C(=O)C(C)NC(=O)NCc1ccc(N)cc1` (stereo not shown) [Compound F714, 1-(4-aminobenzyl)-3-(1-(2-(2-(methylthio)phenyl)pyrrolidin-1-yl)-1-oxopropan-2-yl)urea], for which the IC50 was 1.1 µM in data set [2] and 3.1 µM in data set [3].
